Measured values as given in patent publication US20150376099A1, “New 3,3',5,5'-Tetraisopropyl-4,4'-Diphenol Crystal Form And Preparation Method Thereof” (XI' AN LIBANG PHARMACEUTICAL CO., LTD., priority 2013, published 2015).
Each block holds one molecule with its values, some of them ahead of it.

Key:
[1] = Stability of crystal forms under high temperature; type: physicochemical; conditions: ventilated oven at 80° C. for 7 days, then characterized
Method: (§1) As compared with the solvate, the anhydrate and hydrate are more useful as pharmaceutical crystal forms. The relative stability of the crystal form is an important indicator to be investigated in the research of drug polymorph, and the stability under high temperature, high humidity, strong light, and in water is investigated for the crystal forms I and II.
The crystal forms I and II prepared in Example 6 and 15 were respectively placed in a ventilated oven at 80° C. for 7 days and then characterized, and the result was shown in Table 4.

[2] = Stability of crystal forms under high humidity; type: physicochemical
Method: as §1
The crystal forms I and II prepared in Example 6 and 15 were respectively placed in a constant temperature and humidity chamber at 80° C. and 75% RH for 7 days and then characterized, and the result was shown in Table 4.

[3] = Stability of crystal forms suspended in water; type: physicochemical; conditions: suspended in water at 25° C. for 7 days
Method: as §1
The crystal forms I and II prepared in Example 6 and 15 were placed in water at 25° C. and suspended for 7 days and then characterized, and the result was shown in Table 4.

[4] = Stability of crystal forms under strong light; type: physicochemical; conditions: light stable box, illumination of 4500lux, 7 days
Description: as §1
The crystal forms I and II prepared in Example 6 and 15 were respectively placed in a light stable box with illumination of 4500lux for 7 days and then characterized, and the result was shown in Table 4.

GAGA receptor = conditions: cited from earlier work
GABA = conditions: cited from earlier work
NMDA receptors = conditions: cited from earlier work
slow Ca^2+ channel = conditions: cited from earlier work
[5] = test system: kainate-induced excitotoxicity; conditions: cited from earlier work
[6] = compared with propofol; cited from earlier work
brain = conditions: cited from earlier work

Crystal form found after High temperature (80° C.) ([1]; listed as II): I, II
Crystal form found after High humidity (40° C., 75% RH) ([2]; constant temperature and humidity chamber, 40° C., 75% RH, 7 days): I (few), II
Crystal form found after Water ([3]; listed as II): I (few), II
Compound: CC(C)c1cc(-c2cc(C(C)C)c(O)c(C(C)C)c2)cc(C(C)C)c1O [crystal form II, 3,3′,5,5′-tetraisopropyl-4,4′-diphenol]
Crystal form found after High temperature (80° C.) [1]: tendency of converting to the crystal form I
Stability under high humidity conditions ([2]; 80° C. and 75% RH for 7 days (as printed in text)): tendency of converting to the crystal form I
Crystal form found after Water [3]: tendency of converting to the crystal form I

Crystal form found after Light [4]: good stability
Compound: CC(C)c1cc(-c2cc(C(C)C)c(O)c(C(C)C)c2)cc(C(C)C)c1O [crystal form I, 3,3′,5,5′-tetraisopropyl-4,4′-diphenol]

Compound: CC(C)c1cc(-c2cc(C(C)C)c(O)c(C(C)C)c2)cc(C(C)C)c1O [3,3′,5,5′-tetraisopropyl-4,4′-diphenol]
Affinity for the GAGA receptor (GAGA receptor): strong affinity
GABA agonistic effect (GABA): GABA agonistic effect
Antagonism of NMDA receptors (NMDA receptors): could antagonize NMDA receptors
Ca^2+ influx in the slow Ca^2+ channel (slow Ca^2+ channel): regulate Ca^2+ influx
Effect on kainate-induced excitotoxicity [5]: protective effect
Antioxidant effect [6]: significantly stronger than propofol
Protective effect of brain (brain): strong protective effect of brain
